The structures appear in SMILES notation. pIC50: −log10 of the molar value.

Consider eleven compounds from ChEMBL document CHEMBL3352647, “Synthesis and characterization of novel 1,2-oxazine-based small molecules that targets acetylcholinesterase” (Bioorg Med Chem Lett, 2014).

A short description of assay [1]: Inhibition of soybean 5-LOX by spectrophotometry. More on the design: species or system Glycine max.
A further assay has as its target Acetylcholinesterase (Homo sapiens, UniProt P22303). As to the kind of experiment: Inhibition of AChE (unknown origin) using ACh chloride as substrate preincubated for 15 mins before substrate addition by Ellman method.

Chain of Acetylcholinesterase (P22303 whole entry): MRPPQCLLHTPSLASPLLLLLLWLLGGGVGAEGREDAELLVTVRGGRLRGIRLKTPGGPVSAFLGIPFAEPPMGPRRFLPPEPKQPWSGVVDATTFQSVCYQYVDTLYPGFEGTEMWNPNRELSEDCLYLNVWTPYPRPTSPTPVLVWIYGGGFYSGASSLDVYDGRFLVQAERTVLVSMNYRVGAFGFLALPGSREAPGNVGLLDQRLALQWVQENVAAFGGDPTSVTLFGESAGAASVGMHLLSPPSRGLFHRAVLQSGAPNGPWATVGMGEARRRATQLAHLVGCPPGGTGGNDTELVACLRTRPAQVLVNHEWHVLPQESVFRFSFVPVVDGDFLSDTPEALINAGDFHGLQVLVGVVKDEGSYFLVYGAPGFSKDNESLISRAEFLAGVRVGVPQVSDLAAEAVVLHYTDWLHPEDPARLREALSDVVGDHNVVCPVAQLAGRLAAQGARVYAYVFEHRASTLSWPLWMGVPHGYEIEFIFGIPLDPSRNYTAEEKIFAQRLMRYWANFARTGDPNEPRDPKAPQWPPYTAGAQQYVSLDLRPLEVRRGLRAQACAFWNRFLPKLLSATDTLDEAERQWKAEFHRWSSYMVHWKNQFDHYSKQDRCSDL

As to `COC(=O)C(CC1=NOC(C)(C)C[C@H]1c1ccc(OC)cc1)C(=O)OC`, in assay [1], the pIC50 was 4.17. For the compound `CC(=O)N1OC(C)(C)CC(c2ccccc2)=C1CN1C(=O)c2ccccc2C1=O`, the pIC50 at Acetylcholinesterase is 5.60; in assay [1] it was 5.73. In the case of `COC(=O)CC1=NO[C@@H]2[C@H]3CC[C@H](C3)[C@@H]2[C@H]1c1ccccc1`, the pIC50 on Acetylcholinesterase was 5.20; in assay [1] it was 4.78.

Consider `COC(=O)CC1=NO[C@@H]2CCCC[C@@H]2[C@H]1c1ccccc1`, for which the pIC50 at Acetylcholinesterase is 4.45; in assay [1], 4.79. `COC(=O)C(CC1=C(c2ccc(Cl)cc2)CC(C)(C)ON1C(C)=O)C(=O)OC` showed a pIC50 at Acetylcholinesterase of 4.33. As to `COC(=O)C(CC1=C(c2ccc(OC)cc2)CC(C)(C)ON1C(C)=O)C(=O)OC`, the pIC50 was 4.84 against Acetylcholinesterase and 5.91 in assay [1]. For `COC(=O)C(CC1=NO[C@@H]2CCCC2[C@H]1c1ccccc1)C(=O)OC` (single isomer, unassigned) the same measures were 4.12 and 4.09. `COC(=O)C(CC1=NO[C@@H]2CCCC[C@@H]2[C@H]1c1ccc(OC)cc1)C(=O)OC` showed a pIC50 in assay [1] of 4.47. Turning to `CC1(C)C[C@@H](c2ccccc2)C(CN2C(=O)c3ccccc3C2=O)=NO1`, the pIC50 on Acetylcholinesterase is 4.18; in assay [1], 4.52.

For the compound `COC(=O)C(CC1=C(c2ccccc2)CC(C)(C)ON1C(C)=O)C(=O)OC`, the results for the pIC50 (against Acetylcholinesterase; in assay [1]) were 4.92 and 5.20, respectively. Turning to `COC(=O)C(CC1=NO[C@@H]2[C@@H]3CC[C@@H](C3)[C@@H]2[C@H]1c1ccccc1)C(=O)OC`, in assay [1], the pIC50 was 4.68.
